Consider one compound from ChEMBL document CHEMBL5154904, “Discovery and Structural Basis of the Selectivity of Potent Cyclic Peptide Inhibitors of MAGE-A4” (J Med Chem, 2022).

In assay [1] the test system is T1, Melanoma-associated antigen 4 (Homo sapiens), P43358 [D115R].
T1 sequence (whole entry): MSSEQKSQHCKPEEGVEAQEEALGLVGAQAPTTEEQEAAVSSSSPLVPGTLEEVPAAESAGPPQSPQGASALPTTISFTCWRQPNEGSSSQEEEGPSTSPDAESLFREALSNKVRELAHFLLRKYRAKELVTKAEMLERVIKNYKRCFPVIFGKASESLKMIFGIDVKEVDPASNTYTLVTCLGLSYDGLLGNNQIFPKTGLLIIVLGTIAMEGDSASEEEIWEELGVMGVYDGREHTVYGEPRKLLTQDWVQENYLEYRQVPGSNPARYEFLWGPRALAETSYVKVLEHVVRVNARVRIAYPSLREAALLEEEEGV
In words: Binding affinity to recombinant N-terminal His-tagged MAGEA4-MH domain D115R mutant (unknown origin) expressed in Escherichia coli BL21-(DE3) assessed as increase in thermal stability by SYPRO orange dye based differential scanning fluorimetry. To be noted: dose <= 10.0 µM.

The subject of assay [2] is NCI-H1299. In words: Inhibition of MAGEA4 in human NCI-H1299 cell lysate interaction with HA-tagged RAD18 (unknown origin) at 20 nM incubated for overnight by co-immunoprecipitation pull down assay. Format: subcellular.
The subject of assay [3] is T2, Melanoma-associated antigen 4 (Homo sapiens), P43358 [R297A].
T2 sequence (whole entry): T1 sequence (whole entry) with R115D, R297A
Briefly: Binding affinity to recombinant N-terminal His-tagged MAGEA4-MH domain R297A mutant (unknown origin) expressed in Escherichia coli BL21-(DE3) assessed as increase in thermal stability by SYPRO orange dye based differential scanning fluorimetry. As to conditions: dose <= 10.0 µM.

The test system of assay [4] is T3, Melanoma-associated antigen 4 (Homo sapiens), P43358 [V291A].
T3 sequence (whole entry): T1 sequence (whole entry) with R115D, V291A
In words: Binding affinity to recombinant N-terminal His-tagged MAGEA4-MH domain V291A mutant (unknown origin) expressed in Escherichia coli BL21-(DE3) assessed as increase in thermal stability by SYPRO orange dye based differential scanning fluorimetry. To be noted: dose <= 10.0 µM.

In assay [5] the test system is T4, Melanoma-associated antigen 4 (Homo sapiens), P43358 [E225A].
T4 sequence (whole entry): T1 sequence (whole entry) with R115D, E225A
In words: Binding affinity to recombinant N-terminal His-tagged MAGEA4-MH domain E225A mutant (unknown origin) expressed in Escherichia coli BL21-(DE3) assessed as increase in thermal stability by SYPRO orange dye based differential scanning fluorimetry. To be noted: dose <= 10.0 µM.

Assay [6] addresses T5, Melanoma-associated antigen 4 (Homo sapiens) (UniProt P43358).
T5 sequence (whole entry): T1 sequence (whole entry) with R115D
Briefly: Binding affinity to recombinant N-terminal His-tagged MAGEA4-MH domain (unknown origin) expressed in Escherichia coli BL21-(DE3) assessed as protection in trypsin-induced MAGEA4 protein degradation incubated for 1 hr by proteolysis based SDS-PAGE analysis.

Assay [7] deals with T6, Melanoma-associated antigen 4 (Homo sapiens, UniProt P43358).
T6 sequence (P43358 whole entry): T1 sequence (whole entry) with R115D
Briefly: Binding affinity to recombinant N-terminal His-tagged MAGEA4-MH domain (unknown origin) expressed in Escherichia coli BL21-(DE3) by isothermal titration calorimetry.

In assay [8] the test system is T7, Melanoma-associated antigen 4 (Homo sapiens), P43358 [V294A].
T7 sequence (whole entry): T1 sequence (whole entry) with R115D, V294A
In words: Binding affinity to recombinant N-terminal His-tagged MAGEA4-MH domain V294A mutant (unknown origin) expressed in Escherichia coli BL21-(DE3) assessed as increase in thermal stability by SYPRO orange dye based differential scanning fluorimetry. As to conditions: dose <= 10.0 µM.

The species entered for assay [9] is Homo sapiens. In words: Inhibition of Eu-W1024 streptavidin-labeled 6 xHis-tagged MAGEA4-MH domain M161A mutant (unknown origin) expressed in Escherichia coli BL21-(DE3) interaction with Ulight-labeled GST-tagged RAD18 (unknown origin) (267 to 402 residues) at 1 uM by LANCE TR-FRET assay.
Assay [10] concerns the target T6, Melanoma-associated antigen 4. In words: Binding affinity to MAGEA4 (unknown origin) expressed in Escherichia coli BL21-(DE3) by isothermal titration calorimetry.

Structures are written as SMILES. Numbering of substitutions follows the chain as printed. Calls of active or inactive are those of the source. The calls are words filed in the database; no cut-off is given here. Positions of bridges follow the written chain, without caps; N, C: chain ends. Residues, ends and D or L forms follow the SMILES beside them.

As to `CC[C@H](C)[C@@H]1NC(=O)[C@H](Cc2ccc(O)cc2)NC(=O)CSC[C@@H](C(N)=O)NC(=O)[C@H](CC(N)=O)NC(=O)[C@H](Cc2cnc[nH]2)NC(=O)[C@H](Cc2ccc(O)cc2)NC(=O)[C@H](CC(=O)O)NC(=O)[C@H](Cc2ccc(O)cc2)NC(=O)[C@H](CC(C)C)NC(=O)[C@H](CCCNC(=N)N)NC1=O` ({CH2CO}-YIRLYDYHNC-NH2; thioether N-10), the Tm in [1], in assay [3], in assay [4], in [5] and in assay [8] was < 3.5 °C each time. The inhibition result in [2] and in [9] was “Active” in each case. The outcome in [6] was Active. The dissociation constant (Kd) was found to be 0.0097 µM in assay [7] and 0.0368 µM in [10].
